From patent publication US8178658B2 (Dow AgroSciences, LLC, priority 2008, dated 2012)

Columns and labels:
[1] = tested on: beet armyworm (BAW; Spodoptera exigua: Lepidoptera); test: 96-well microtiter plate-based high throughput (HTS) diet bioassay on beet armyworm (BAW HTS); type: in vivo; details: BAW eggs, 12 μg test compound per well, mortality at 6 d post-treatment, mortality class
Procedure, shortened: (§1)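 Two diet-incorporation-style surface tests were run. Eggs infested treated diet (12 μg/well) in plates incubated dark at 29° C, with mortality taken on day 6 from six replicates. Separately, second-instar larvae fed on treated diet (50 μg/cm^2) at 25° C, 14:10 L:D, with six-day mortality averaged over eight wells.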

[2] = tested on: beet armyworm (BAW; Spodoptera exigua: Lepidoptera); test: 128-well diet tray assay on beet armyworm (BAW 50); type: in vivo; details: 128-well diet tray assay, second instar BAW larvae, mortality class; for BAW 50 ug/cm2: 50 μg/cm^2 of test compound on diet
Procedure, shortened: as §1

[3] = 96-well microtiter plate HTS diet assay

CO[C@@H]1[C@@H](OC)[C@H](C)O[C@@H](O/N=C/c2ccc(-c3ncn(-c4ccc(C(F)(F)F)cc4)n3)cc2)[C@@H]1OC [Compound 80]
BAW HTS ([1]; 96-well HTS diet bioassay): A (the compound was tested and at least 50 percent mortality was observed)
BAW HTS [1, 3]: A (the compound was tested and at least 50 percent mortality was observed)
BAW 50 ug/cm2 [2]: A (the compound was tested and at least 50 percent mortality was observed)

CCCCc1ccc(-n2cnc(-c3ccc(C=NOC4OC(C)C(OC)C(OC)C4OC)cc3)n2)cc1 (stereo not shown) [Compound 81]
BAW HTS ([1]; 96-well HTS diet bioassay): A (the compound was tested and at least 50 percent mortality was observed)
BAW HTS [1, 3]: A (the compound was tested and at least 50 percent mortality was observed)
BAW 50 ug/cm2 [2]: A (the compound was tested and at least 50 percent mortality was observed)

COC1C(C)OC(ON=Cc2ccc(-c3ncn(-c4ccc(OC(F)(F)F)cc4)n3)cc2)C(OC)C1OC (stereo not shown) [Compound 82]
BAW HTS ([1]; 96-well HTS diet bioassay): B (either (1) the compound was tested and less than 50 percent mortality was observed or (2) the compound was not tested)
BAW HTS [1, 3]: B (either (1) the compound was tested and less than 50 percent mortality was observed or (2) the compound was not tested)
BAW 50 ug/cm2 [2]: A (the compound was tested and at least 50 percent mortality was observed)

COC1C(C)OC(ON=Cc2ccc(-c3ncn(-c4ccc(C(C)C)cc4)n3)cc2)C(OC)C1OC (stereo not shown) [Compound 83]
BAW HTS ([1]; 96-well HTS diet bioassay): B (either (1) the compound was tested and less than 50 percent mortality was observed or (2) the compound was not tested)
BAW HTS [1, 3]: B (either (1) the compound was tested and less than 50 percent mortality was observed or (2) the compound was not tested)
BAW 50 ug/cm2 [2]: A (the compound was tested and at least 50 percent mortality was observed)

COC1C(C)OC(ON=Cc2ccc(-c3ncn(-c4ccc(Cl)cc4)n3)cc2)C(OC)C1OC (stereo not shown) [Compound 84]
BAW HTS ([1]; 96-well HTS diet bioassay): B (either (1) the compound was tested and less than 50 percent mortality was observed or (2) the compound was not tested)
BAW HTS [1, 3]: B (either (1) the compound was tested and less than 50 percent mortality was observed or (2) the compound was not tested)
BAW 50 ug/cm2 [2]: A (the compound was tested and at least 50 percent mortality was observed)

COc1ccc(-n2cnc(-c3ccc(C=NOC4OC(C)C(OC)C(OC)C4OC)cc3)n2)cc1 (stereo not shown) [Compound 85]
BAW HTS ([1]; 96-well HTS diet bioassay): B (either (1) the compound was tested and less than 50 percent mortality was observed or (2) the compound was not tested)
BAW HTS [1, 3]: B (either (1) the compound was tested and less than 50 percent mortality was observed or (2) the compound was not tested)
BAW 50 ug/cm2 [2]: A (the compound was tested and at least 50 percent mortality was observed)

COC1C(C)OC(ON=Cc2ccc(-c3ncn(-c4ccc(C(C)(C)C)cc4)n3)cc2)C(OC)C1OC (stereo not shown) [Compound 86]
BAW HTS ([1]; 96-well HTS diet bioassay): B (either (1) the compound was tested and less than 50 percent mortality was observed or (2) the compound was not tested)
BAW HTS [1, 3]: B (either (1) the compound was tested and less than 50 percent mortality was observed or (2) the compound was not tested)
BAW 50 ug/cm2 [2]: A (the compound was tested and at least 50 percent mortality was observed)

COC1C(C)OC(ON=Cc2ccc(-c3ncn(-c4ccc(SC(F)(F)F)cc4)n3)cc2)C(OC)C1OC (stereo not shown) [Compound 87]
BAW HTS ([1]; 96-well HTS diet bioassay): B (either (1) the compound was tested and less than 50 percent mortality was observed or (2) the compound was not tested)
BAW HTS [1, 3]: B (either (1) the compound was tested and less than 50 percent mortality was observed or (2) the compound was not tested)
BAW 50 ug/cm2 [2]: A (the compound was tested and at least 50 percent mortality was observed)

COC1C(C)OC(ON=Cc2ccc(-c3ncn(-c4ccc(OC(F)(F)C(F)F)cc4)n3)cc2)C(OC)C1OC (stereo not shown) [Compound 88]
BAW HTS ([1]; 96-well HTS diet bioassay): B (either (1) the compound was tested and less than 50 percent mortality was observed or (2) the compound was not tested)
BAW HTS [1, 3]: B (either (1) the compound was tested and less than 50 percent mortality was observed or (2) the compound was not tested)
BAW 50 ug/cm2 [2]: A (the compound was tested and at least 50 percent mortality was observed)

COC1C(C)OC(ON=Cc2ccc(-c3ncn(-c4ccc(OC(F)(F)C(F)(F)F)cc4)n3)cc2)C(OC)C1OC (stereo not shown) [Compound 89]
BAW HTS ([1]; 96-well HTS diet bioassay): B (either (1) the compound was tested and less than 50 percent mortality was observed or (2) the compound was not tested)
BAW HTS [1, 3]: B (either (1) the compound was tested and less than 50 percent mortality was observed or (2) the compound was not tested)
BAW 50 ug/cm2 [2]: A (the compound was tested and at least 50 percent mortality was observed)

COC1C(C)OC(ON=Cc2ccc(-c3ncn(-c4ccc(SC)cc4)n3)cc2)C(OC)C1OC (stereo not shown) [Compound 90]
BAW HTS ([1]; 96-well HTS diet bioassay): B (either (1) the compound was tested and less than 50 percent mortality was observed or (2) the compound was not tested)
BAW HTS [1, 3]: B (either (1) the compound was tested and less than 50 percent mortality was observed or (2) the compound was not tested)
BAW 50 ug/cm2 [2]: A (the compound was tested and at least 50 percent mortality was observed)

COC1C(C)OC(ON=Cc2ccc(-c3ncn(-c4cccc(OC(F)(F)F)c4)n3)cc2)C(OC)C1OC (stereo not shown) [Compound 91]
BAW HTS ([1]; 96-well HTS diet bioassay): B (either (1) the compound was tested and less than 50 percent mortality was observed or (2) the compound was not tested)
BAW HTS [1, 3]: B (either (1) the compound was tested and less than 50 percent mortality was observed or (2) the compound was not tested)
BAW 50 ug/cm2 [2]: A (the compound was tested and at least 50 percent mortality was observed)

CCOC1C(C)OC(ON=Cc2ccc(-c3ncn(-c4ccc(OC(F)(F)C(F)(F)F)cc4)n3)cc2)C(OCC)C1OCC (stereo not shown) [Compound 92]
BAW HTS ([1]; 96-well HTS diet bioassay): B (either (1) the compound was tested and less than 50 percent mortality was observed or (2) the compound was not tested)
BAW HTS [1, 3]: B (either (1) the compound was tested and less than 50 percent mortality was observed or (2) the compound was not tested)
BAW 50 ug/cm2 [2]: A (the compound was tested and at least 50 percent mortality was observed)

CCOC1C(OC)C(C)OC(ON=Cc2ccc(-c3ncn(-c4ccc(OC(F)(F)C(F)(F)F)cc4)n3)cc2)C1OC (stereo not shown) [Compound 93]
BAW HTS ([1]; 96-well HTS diet bioassay): A (the compound was tested and at least 50 percent mortality was observed)
BAW HTS [1, 3]: A (the compound was tested and at least 50 percent mortality was observed)
BAW 50 ug/cm2 [2]: A (the compound was tested and at least 50 percent mortality was observed)

CO[C@@H]1[C@@H](OC)[C@H](C)O[C@@H](O/N=C/c2ccc(-c3ncn(-c4ccc(OC(F)(F)C(F)C(F)(F)F)cn4)n3)cc2)[C@@H]1OC (stereo partly drawn) [Compound 94, 4-{1-[5-(1,1,2,3,3,3-hexafluoropropoxy)-pyridinyl]-1H-[1,2,4]triazol-3-yl}-benzaldehyde O-((2S,3R,4R,5S,6S)-3,4,5-trimethoxy-6-methyl-tetrahydropyran-2-yl)-oxime]
BAW HTS [1, 3]: B (either (1) the compound was tested and less than 50 percent mortality was observed or (2) the compound was not tested)
pest or weed control at 12 µg/well, 12 µg/well ([1]; Spodoptera exigua, 144 h, 96-well HTS diet bioassay, read-out: BAW HTS): < 50%
BAW 50 ug/cm2 [2]: A (the compound was tested and at least 50 percent mortality was observed)
pest or weed control at 50 µg/cm2, 50 µg/cm2 ([2]; Spodoptera exigua, 144 h, 50 μg/cm2 of test compound on diet, read-out: BAW 50 ug/cm2): > 50%

COC1C(C)OC(ON=Cc2ccc(-c3nc(-c4ccc(C(F)(F)F)cc4)n[nH]3)cc2)C(OC)C1OC (stereo not shown) [Compound 95]
BAW HTS ([1]; 96-well HTS diet bioassay): B (either (1) the compound was tested and less than 50 percent mortality was observed or (2) the compound was not tested)
BAW HTS [1, 3]: B (either (1) the compound was tested and less than 50 percent mortality was observed or (2) the compound was not tested)
BAW 50 ug/cm2 [2]: A (the compound was tested and at least 50 percent mortality was observed)

COC1C(C)OC(ON=Cc2ccc(-c3nc(-c4ccc(Cl)cc4)n[nH]3)cc2)C(OC)C1OC (stereo not shown) [Compound 96]
BAW HTS ([1]; 96-well HTS diet bioassay): B (either (1) the compound was tested and less than 50 percent mortality was observed or (2) the compound was not tested)
BAW HTS [1, 3]: B (either (1) the compound was tested and less than 50 percent mortality was observed or (2) the compound was not tested)
BAW 50 ug/cm2 [2]: A (the compound was tested and at least 50 percent mortality was observed)

COC1C(C)OC(ON=Cc2ccc(-c3nc(-c4ccc(C(C)(C)C)cc4)n[nH]3)cc2)C(OC)C1OC (stereo not shown) [Compound 97]
BAW HTS ([1]; 96-well HTS diet bioassay): B (either (1) the compound was tested and less than 50 percent mortality was observed or (2) the compound was not tested)
BAW HTS [1, 3]: B (either (1) the compound was tested and less than 50 percent mortality was observed or (2) the compound was not tested)
BAW 50 ug/cm2 [2]: A (the compound was tested and at least 50 percent mortality was observed)

COC1C(C)OC(ON=Cc2ccc(-c3nn(-c4ccc(Cl)c(Cl)c4)c(=O)[nH]3)cc2)C(OC)C1OC (stereo not shown) [Compound 98]
BAW HTS ([1]; 96-well HTS diet bioassay): B (either (1) the compound was tested and less than 50 percent mortality was observed or (2) the compound was not tested)
BAW HTS [1, 3]: B (either (1) the compound was tested and less than 50 percent mortality was observed or (2) the compound was not tested)
BAW 50 ug/cm2 [2]: A (the compound was tested and at least 50 percent mortality was observed)

COC1C(C)OC(ON=Cc2ccc(-c3nn(-c4c(F)c(F)c(C(F)(F)F)c(F)c4F)c(=O)[nH]3)cc2)C(OC)C1OC (stereo not shown) [Compound 99]
BAW HTS ([1]; 96-well HTS diet bioassay): B (either (1) the compound was tested and less than 50 percent mortality was observed or (2) the compound was not tested)
BAW HTS [1, 3]: B (either (1) the compound was tested and less than 50 percent mortality was observed or (2) the compound was not tested)
BAW 50 ug/cm2 [2]: A (the compound was tested and at least 50 percent mortality was observed)
